Laboratory results as given in patent publication US20170029383A1, “Diaminotriazine Derivatives as Herbicides” (BASF SE, priority 2014, published 2017).

Tests used:
Assay in all cases: greenhouse experiment, pre-emergence treatment
Conditions in all cases: pre-emergence method, application rate 0.500 kg/ha; scale from 0 to 100
AMARE = assay type: in vivo, Amaranthus retroflexus
Excerpt: (§1) The seeds of the test plants were sown separately for each species. For the pre-emergence treatment, the active ingredients, which had been suspended or emulsified in water, were applied directly after sowing by means of finely distributing nozzles. The containers were irrigated gently to promote germination and growth and subsequently covered with transparent plastic hoods until the plants had rooted. This cover caused uniform germination of the test plants, unless this had been impaired by the active ingredients. Depending on the species, the plants were kept at 10-25° C. or 20-35° C., respectively. The test period extended over 2 to 4 weeks. During this time, the plants were tended, and their response to the individual treatments was evaluated. Evaluation was carried out using a scale from 0 to 100. 100 means no emergence of the plants, or complete destruction of at least the aerial moieties, and 0 means no damage, or normal course of growth. A moderate herbicidal activity is given at values of at least 60, a good herbicidal activity is given at values of at least 70, and a very good herbicidal activity is given at values of at least 85. The plants used in the greenhouse experiments were of the following species: [table]

SETFA = assay type: in vivo, Setaria faberi
Excerpt: as §1

ABUTH = assay type: in vivo, Abutilon theophrasti
Excerpt: as §1

## CC(C)Oc1cccc(F)c1Nc1nc(N)nc(C(C)(C)F)n1 [Example 1, N2-(2-fluoro-6-isopropoxy-phenyl)-6-(1-fluoro-1-methyl-ethyl)-1,3,5-triazine-2,4-diamine]
AMARE
  herbicidal activity against AMARE: very good (a very good herbicidal activity is given at values of at least 85)
SETFA
  herbicidal activity against SETFA: very good (a very good herbicidal activity is given at values of at least 85)
ABUTH
  herbicidal activity against ABUTH: very good (a very good herbicidal activity is given at values of at least 85)
